Experimental data from ChEMBL document CHEMBL5696439 (Cancer Res, 2010).
Calls of active or inactive are those of the source. The calls are words filed in the database; no cut-off is given here.

How the values were obtained:
U-87 MG = assay: Induction of apoptosis in human U-87MG cells assessed as reduction in S phase at 1 micromol/L incubated for 24 hrs by FACS analysis; type: functional, cell-based; settings: U-87MG ATCC, dose 1.0 µmol/L
[1] = target: Serine/threonine-protein kinase 26 (Homo sapiens) (UniProt Q9P289); assay: Inhibition of recombinant human full length GST-tagged MST4 expressed in insect cells at 2 uM using Ser/Thr 07 as substrate measured after 1 hr by Z'-LYTE assay relative to control; settings: Insect cell
MG-63 = assay: Antiproliferative activity against human MG-63 cells assessed as cell growth inhibition incubated for 24 hrs by MTS assay; type: functional, cell-based; settings: MG-63, 24 h
A549 = assay: Antitumor activity against VHL null-human A549 cells xenografted in female nude mouse model assessed as suppression in tumor growth at 25 mg/kg, po qd administered as 5 days on/2 days off regimen for 4 cycles relative to control; type: functional; settings: time 28 day
[2] = target: Serine/threonine-protein kinase 25 (Homo sapiens) (UniProt O00506); assay: Inhibition of recombinant human full length GST-tagged STK25 expressed in insect cells at 2 uM using Ser/Thr 07 as substrate measured after 1 hr by Z'-LYTE assay relative to control; settings: Insect cell
[3] = target: Ribosomal protein S6 kinase alpha-2 (Homo sapiens) (UniProt Q15349); assay: Inhibition of recombinant human full length GST-tagged RPS6KA2 expressed in insect cells at 2 uM using Ser/Thr 06 as substrate measured after 1 hr by Z'-LYTE assay relative to control; settings: Insect cell
Sequence of Ribosomal protein S6 kinase alpha-2 (Homo sapiens) (Q15349 whole entry, the tested form may be a part): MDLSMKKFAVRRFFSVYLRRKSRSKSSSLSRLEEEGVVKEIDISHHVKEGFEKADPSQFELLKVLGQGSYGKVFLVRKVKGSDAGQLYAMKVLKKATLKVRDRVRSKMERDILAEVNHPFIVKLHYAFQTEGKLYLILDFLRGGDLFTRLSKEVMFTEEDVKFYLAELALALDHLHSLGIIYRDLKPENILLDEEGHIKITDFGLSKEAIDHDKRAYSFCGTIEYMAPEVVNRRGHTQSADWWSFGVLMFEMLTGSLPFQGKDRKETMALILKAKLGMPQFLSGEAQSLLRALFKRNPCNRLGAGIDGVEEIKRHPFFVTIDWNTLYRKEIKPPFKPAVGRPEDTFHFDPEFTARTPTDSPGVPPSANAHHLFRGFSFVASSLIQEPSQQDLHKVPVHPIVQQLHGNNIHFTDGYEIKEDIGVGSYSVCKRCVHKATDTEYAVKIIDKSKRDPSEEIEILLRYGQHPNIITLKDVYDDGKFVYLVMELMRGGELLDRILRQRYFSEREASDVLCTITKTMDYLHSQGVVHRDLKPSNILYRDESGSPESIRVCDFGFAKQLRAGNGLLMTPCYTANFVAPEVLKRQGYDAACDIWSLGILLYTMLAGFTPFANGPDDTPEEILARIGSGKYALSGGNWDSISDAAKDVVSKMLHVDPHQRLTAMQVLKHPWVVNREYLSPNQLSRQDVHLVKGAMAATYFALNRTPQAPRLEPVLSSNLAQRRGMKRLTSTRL

[4] = target: Ephrin type-A receptor 8 (Homo sapiens) (UniProt P29322); assay: Inhibition of recombinant human GST-tagged EPHA8 (565-1005 residues) expressed in insect cells at 2 uM using Tyr 02 as substrate measured after 1 hr by Z'-LYTE assay relative to control; settings: Insect cell
[5] = target: Receptor tyrosine-protein kinase erbB-4 (Homo sapiens) (UniProt Q15303); assay: Inhibition of recombinant human GST-tagged ERBB4 (708-993 residues) expressed in insect cells at 2 uM using Tyr 01 as substrate measured after 1 hr by Z'-LYTE assay relative to control; settings: Insect cell
[6] = system: Platelet-derived growth factor receptor alpha (Homo sapiens), P16234 [V561D]; assay: Inhibition of recombinant human GST-tagged PDGFRA V561D mutant (550-1089 residues) expressed in insect cells at 2 uM using Tyr 04 as substrate measured after 1 hr by Z'-LYTE assay relative to control; settings: Insect cell
[7] = target: MAP kinase-activated protein kinase 3 (Homo sapiens) (UniProt Q16644); assay: Inhibition of recombinant human full length His-tagged MAPKAPK3 expressed in baculovirus expression system at 2 uM using Ser/Thr 04 as substrate measured after 1 hr by Z'-LYTE assay relative to control
MDA-MB-361 [8] = assay: Antitumor activity against human MDA-MB-361 cells xenografted in female nude mouse model assessed as suppression in P-AKT at S473 level at 50 mg/kg, po qd administered as 5 days on/2 days off regimen for 4 cycles by immunoblot analysis; type: functional, organism-based; settings: time 28.0 day
PI3K p110 beta/p85 alpha = PI3K p110 beta/p85 alpha (Homo sapiens, UniProt P42338); assay: Inhibition of p110beta/p85alpha (unknown origin) using PIP2 as substrate measured after 15 to 30 mins by fluorescence polarization assay; type: protein-complex assay
Sequence of PI3K p110 beta/p85 alpha (P27986 whole entry): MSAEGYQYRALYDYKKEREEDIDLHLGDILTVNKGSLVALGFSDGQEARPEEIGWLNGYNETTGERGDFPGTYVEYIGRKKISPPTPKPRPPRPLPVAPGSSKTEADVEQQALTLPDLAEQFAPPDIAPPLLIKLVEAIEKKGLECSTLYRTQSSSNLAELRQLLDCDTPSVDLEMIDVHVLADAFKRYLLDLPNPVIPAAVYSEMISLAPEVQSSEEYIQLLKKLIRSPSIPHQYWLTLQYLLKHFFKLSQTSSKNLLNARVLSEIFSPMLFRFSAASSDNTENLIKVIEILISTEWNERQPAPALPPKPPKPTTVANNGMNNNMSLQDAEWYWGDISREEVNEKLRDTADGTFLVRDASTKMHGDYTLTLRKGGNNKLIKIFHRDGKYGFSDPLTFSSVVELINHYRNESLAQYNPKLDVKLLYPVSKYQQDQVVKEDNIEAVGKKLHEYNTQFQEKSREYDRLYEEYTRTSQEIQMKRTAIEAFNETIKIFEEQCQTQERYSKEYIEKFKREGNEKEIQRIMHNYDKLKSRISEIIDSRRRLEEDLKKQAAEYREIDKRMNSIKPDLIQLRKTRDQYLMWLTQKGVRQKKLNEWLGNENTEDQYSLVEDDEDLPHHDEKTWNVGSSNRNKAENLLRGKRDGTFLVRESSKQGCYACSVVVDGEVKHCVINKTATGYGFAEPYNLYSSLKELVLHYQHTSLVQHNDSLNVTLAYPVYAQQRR
Sequence of PI3K p110 beta/p85 alpha (P42338 whole entry): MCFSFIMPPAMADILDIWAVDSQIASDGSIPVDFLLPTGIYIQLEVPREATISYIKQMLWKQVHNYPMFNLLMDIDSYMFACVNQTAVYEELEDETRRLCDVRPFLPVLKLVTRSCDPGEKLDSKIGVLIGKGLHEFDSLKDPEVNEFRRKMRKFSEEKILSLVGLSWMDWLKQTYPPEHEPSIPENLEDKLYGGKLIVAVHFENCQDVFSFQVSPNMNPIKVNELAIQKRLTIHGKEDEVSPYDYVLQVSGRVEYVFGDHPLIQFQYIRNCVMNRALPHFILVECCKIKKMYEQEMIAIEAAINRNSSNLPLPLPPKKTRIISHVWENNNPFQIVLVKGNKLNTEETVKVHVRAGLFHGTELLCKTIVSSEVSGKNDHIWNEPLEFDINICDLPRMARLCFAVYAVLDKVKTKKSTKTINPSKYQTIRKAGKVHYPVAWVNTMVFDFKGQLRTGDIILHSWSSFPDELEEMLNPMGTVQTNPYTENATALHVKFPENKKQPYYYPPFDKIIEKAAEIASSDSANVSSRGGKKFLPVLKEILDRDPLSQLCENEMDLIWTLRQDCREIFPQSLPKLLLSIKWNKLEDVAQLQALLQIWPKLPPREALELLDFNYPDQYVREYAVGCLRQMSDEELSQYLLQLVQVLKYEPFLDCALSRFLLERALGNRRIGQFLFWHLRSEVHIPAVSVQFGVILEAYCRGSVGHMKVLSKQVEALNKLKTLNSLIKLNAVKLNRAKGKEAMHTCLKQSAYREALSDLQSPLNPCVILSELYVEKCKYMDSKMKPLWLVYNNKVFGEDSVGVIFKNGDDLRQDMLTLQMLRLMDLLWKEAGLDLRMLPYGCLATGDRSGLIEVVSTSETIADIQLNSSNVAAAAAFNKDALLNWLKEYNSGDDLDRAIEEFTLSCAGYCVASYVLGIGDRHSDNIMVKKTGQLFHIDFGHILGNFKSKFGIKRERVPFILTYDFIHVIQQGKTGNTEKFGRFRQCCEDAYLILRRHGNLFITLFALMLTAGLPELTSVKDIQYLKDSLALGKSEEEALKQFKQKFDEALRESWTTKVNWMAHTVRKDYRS

[9] = target: Tyrosine-protein kinase Blk (Homo sapiens) (UniProt P51451); assay: Inhibition of recombinant human full-length His-tagged BLK expressed in insect cells at 2 uM using Tyr 01 as substrate measured after 1 hr by Z'-LYTE assay relative to control; settings: Insect cell
[10] = target: Platelet-derived growth factor receptor beta (Homo sapiens) (UniProt P09619); assay: Inhibition of recombinant human His-tagged PDGFRB (558-1106 residues) expressed in baculovirus expression system at 2 uM using Tyr 04 as substrate measured after 1 hr by Z'-LYTE assay relative to control
NCI-H157 = assay: Antiproliferative activity against human NCI-H157 cells assessed as cell growth inhibition incubated for 24 hrs by MTS assay; type: functional, cell-based; settings: NCI-H157, 24 h
[11] = target: Serine/threonine-protein kinase PAK 4 (Homo sapiens) (UniProt O96013); assay: Inhibition of recombinant human GST-tagged PAK4 (295-591 residues) expressed in insect cells at 2 uM using Ser/Thr 20 as substrate measured after 1 hr by Z'-LYTE assay relative to control; settings: Insect cell
Sequence of Serine/threonine-protein kinase PAK 4 (Homo sapiens) (O96013 whole entry, looked up, the tested form may be a part): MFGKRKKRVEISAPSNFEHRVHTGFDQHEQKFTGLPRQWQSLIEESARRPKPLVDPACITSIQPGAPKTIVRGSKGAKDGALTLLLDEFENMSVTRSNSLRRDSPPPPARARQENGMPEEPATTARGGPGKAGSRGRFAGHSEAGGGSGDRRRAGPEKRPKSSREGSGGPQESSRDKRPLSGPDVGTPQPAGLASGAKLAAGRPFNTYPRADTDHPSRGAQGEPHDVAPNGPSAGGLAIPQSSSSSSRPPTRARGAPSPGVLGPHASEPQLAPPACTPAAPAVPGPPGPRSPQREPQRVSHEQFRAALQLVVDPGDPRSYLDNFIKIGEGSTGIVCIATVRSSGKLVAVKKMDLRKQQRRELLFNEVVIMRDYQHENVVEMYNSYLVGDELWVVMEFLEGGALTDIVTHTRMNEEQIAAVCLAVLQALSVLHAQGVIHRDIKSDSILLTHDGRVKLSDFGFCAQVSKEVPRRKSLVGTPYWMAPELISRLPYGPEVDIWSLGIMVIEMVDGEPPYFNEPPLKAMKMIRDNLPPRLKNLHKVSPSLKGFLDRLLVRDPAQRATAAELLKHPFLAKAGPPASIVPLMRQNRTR

MDA-MB-361 [12] = assay: Inhibition of protein synthesis in human MDA-MB-361 cells at 0.3 micromol/L incubated for 3 hrs by [3H] methionine incorporation based scintillation counter analysis relative to control; type: functional; settings: MDA-MB-361, 3 h, dose 0.3 µmol/L
[13] = target: Mitogen-activated protein kinase kinase kinase kinase 5 (Homo sapiens) (UniProt Q9Y4K4); assay: Inhibition of recombinant human full length GST-tagged MAP4K5 expressed in insect cells at 2 uM using Ser/Thr 07 as substrate measured after 1 hr by Z'-LYTE assay relative to control; settings: Insect cell
[14] = target: Rho-associated protein kinase 1 (Homo sapiens) (UniProt Q13464); assay: Inhibition of recombinant human GST-tagged ROCK1 (1-535 residues) expressed in insect cells at 2 uM using Ser/Thr 07 as substrate measured after 1 hr by Z'-LYTE assay relative to control; settings: Insect cell
MDA-MB-361 [15] = assay: Antitumor activity against human MDA-MB-361 cells assessed as reduction in oxygen consumption rate at 1 micromol/L incubated for 1 hrs relative to control; type: functional; parameters: scale not given: the % may be the effect or the level left; settings: dose 1 µmol/L, at 1 µM
[16] = target: Tyrosine-protein kinase JAK3 (Homo sapiens) (UniProt P52333); assay: Inhibition of recombinant human GST-tagged JAK3 (781-1124 residues) expressed in insect cells at 2 uM using Tyr 06 as substrate measured after 1 hr by Z'-LYTE assay relative to control; settings: Insect cell
Sequence of Tyrosine-protein kinase JAK3 (Homo sapiens) (P52333 whole entry, the tested form may be a part): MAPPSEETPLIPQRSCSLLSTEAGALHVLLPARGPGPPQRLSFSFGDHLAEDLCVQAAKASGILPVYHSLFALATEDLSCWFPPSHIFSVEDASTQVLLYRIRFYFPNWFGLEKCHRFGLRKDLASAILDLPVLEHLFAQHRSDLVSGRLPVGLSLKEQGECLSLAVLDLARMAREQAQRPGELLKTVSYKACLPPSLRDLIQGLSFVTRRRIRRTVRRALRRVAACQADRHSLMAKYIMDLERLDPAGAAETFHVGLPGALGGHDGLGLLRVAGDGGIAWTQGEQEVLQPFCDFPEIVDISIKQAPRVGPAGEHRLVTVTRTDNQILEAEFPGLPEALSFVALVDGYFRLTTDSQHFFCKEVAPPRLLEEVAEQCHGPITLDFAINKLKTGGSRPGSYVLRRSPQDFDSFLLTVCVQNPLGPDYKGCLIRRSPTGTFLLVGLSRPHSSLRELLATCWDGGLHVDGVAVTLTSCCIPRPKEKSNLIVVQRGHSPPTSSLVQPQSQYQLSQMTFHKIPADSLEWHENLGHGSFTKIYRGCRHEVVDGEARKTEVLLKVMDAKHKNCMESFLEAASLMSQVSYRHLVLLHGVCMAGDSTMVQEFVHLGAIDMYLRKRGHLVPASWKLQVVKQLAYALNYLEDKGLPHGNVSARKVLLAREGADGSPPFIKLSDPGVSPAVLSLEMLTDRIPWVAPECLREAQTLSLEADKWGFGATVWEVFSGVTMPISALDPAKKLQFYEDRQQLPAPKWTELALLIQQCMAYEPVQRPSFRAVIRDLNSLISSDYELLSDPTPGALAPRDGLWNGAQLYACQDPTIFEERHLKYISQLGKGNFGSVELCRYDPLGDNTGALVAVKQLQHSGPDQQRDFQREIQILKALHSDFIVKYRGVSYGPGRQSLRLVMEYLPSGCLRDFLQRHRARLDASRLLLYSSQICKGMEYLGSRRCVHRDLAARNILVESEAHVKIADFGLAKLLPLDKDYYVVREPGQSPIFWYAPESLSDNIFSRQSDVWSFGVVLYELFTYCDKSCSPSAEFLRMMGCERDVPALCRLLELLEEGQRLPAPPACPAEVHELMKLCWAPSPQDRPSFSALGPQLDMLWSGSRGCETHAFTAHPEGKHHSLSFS

HeLa = assay: Antiproliferative activity against human HeLa cells assessed as cell growth inhibition incubated for 24 hrs by MTS assay; type: functional, cell-based
HCT-116 = assay: Induction of apoptosis in human HCT-116 cells assessed as increase in G1 phase at 1 micromol/L incubated for 24 hrs by FACS analysis; type: functional, cell-based; settings: dose 1.0 µmol/L
[17] = target: Casein kinase I isoform epsilon (Homo sapiens) (UniProt P49674); assay: Inhibition of recombinant human full-length His-tagged CSNK1E expressed in insect cells at 2 uM using Ser/Thr 11 as substrate measured after 1 hr by Z'-LYTE assay relative to control; settings: Insect cell
Sequence of Casein kinase I isoform epsilon (Homo sapiens) (P49674 whole entry, looked up, canonical isoform): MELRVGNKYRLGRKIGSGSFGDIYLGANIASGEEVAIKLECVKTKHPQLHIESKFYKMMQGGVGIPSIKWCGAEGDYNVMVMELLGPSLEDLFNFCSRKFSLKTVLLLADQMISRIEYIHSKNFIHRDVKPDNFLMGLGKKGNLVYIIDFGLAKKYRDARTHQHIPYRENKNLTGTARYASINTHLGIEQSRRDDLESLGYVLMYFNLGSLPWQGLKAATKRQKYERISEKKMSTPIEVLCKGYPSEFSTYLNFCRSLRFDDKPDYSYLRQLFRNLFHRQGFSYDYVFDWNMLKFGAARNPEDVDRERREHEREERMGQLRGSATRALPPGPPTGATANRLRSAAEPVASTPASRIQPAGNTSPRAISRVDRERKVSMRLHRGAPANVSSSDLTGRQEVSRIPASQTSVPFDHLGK

[18] = target: Interleukin-1 receptor-associated kinase 4 (Homo sapiens) (UniProt Q9NWZ3); assay: Inhibition of recombinant human full-length His-tagged IRAK4 expressed in insect cells at 2 uM using Ser/Thr 07 as substrate measured after 1 hr by Z'-LYTE assay relative to control; settings: Insect cell
[19] = target: Glycogen synthase kinase-3 beta (Homo sapiens) (UniProt P49841); assay: Inhibition of recombinant human full-length His-tagged GSK3B expressed in baculovirus expression system at 2 uM using Ser/Thr 09 as substrate measured after 1 hr by Z'-LYTE assay relative to control
Sequence of Glycogen synthase kinase-3 beta (Homo sapiens) (P49841 whole entry, looked up): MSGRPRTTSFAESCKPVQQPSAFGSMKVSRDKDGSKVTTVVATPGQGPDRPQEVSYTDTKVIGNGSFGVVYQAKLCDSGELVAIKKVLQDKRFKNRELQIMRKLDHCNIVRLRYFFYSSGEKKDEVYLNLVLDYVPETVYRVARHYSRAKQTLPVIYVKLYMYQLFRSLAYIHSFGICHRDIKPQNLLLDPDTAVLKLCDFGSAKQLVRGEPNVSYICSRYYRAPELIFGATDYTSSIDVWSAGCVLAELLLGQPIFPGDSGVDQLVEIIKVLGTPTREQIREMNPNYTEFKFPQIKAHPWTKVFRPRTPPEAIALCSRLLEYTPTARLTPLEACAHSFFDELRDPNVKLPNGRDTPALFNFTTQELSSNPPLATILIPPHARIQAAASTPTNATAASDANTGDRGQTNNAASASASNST

In the case of `CNC(=O)Nc1ccc(-c2nc(N3CC4CCC(C3)O4)c3cnn(C4CCC5(CC4)OCCO5)c3n2)cc1`, the Activity (U-87 MG) is reported as “Active”, the inhibition [1] is reported as 7% and the IC50 (MG-63) is reported as 0.025 µM. The Activity (A549) was 100%, the inhibition [2] was 2% and the inhibition [3] was -1%. The inhibition [4] was 24%, the inhibition [5] was 3% and the inhibition [6] was 3%. The inhibition [7] was 1%, the Activity (MDA-MB-361 [8]) was “Active” and the IC50 (PI3K p110 beta/p85 alpha) was greater than 10 µM. It also gave an inhibition [9] of 1%, an inhibition [10] of 2% and an IC50 (NCI-H157) of 0.145 µM. The inhibition [11] was 13%, the inhibition at 0.3 µM (MDA-MB-361 [12]) was roughly 50% and the inhibition [13] was 19%. The inhibition [14] was -8%, the Activity (MDA-MB-361 [15]) was 35% and the inhibition [16] was 0%. The IC50 (HeLa) was 0.055 µM, the Activity (HCT-116) was “Active” and the inhibition [17] was 4%. The inhibition [18] was 3% and the inhibition [19] was 1%.
